Measured values as given in article PMC12186298, “Phase 1 clinical trial of eneboparatide, a novel PTH receptor 1 agonist” (Endocrine Connections, 2025).
Peptide text beside a SMILES is read from it.

System: healthy subjects
Assay: Safety and tolerability, adverse events, Part B MAD
[1] = Part B, 60 μg/day sc 14 days, n = 8
[2] = Part B, 80 μg/day sc 14 days, n = 8
[3] = Part B, total eneboparatide, n = 40

Protocol: A total of five sequential cohorts were included in Part B with ten subjects in each cohort (eight receiving eneboparatide at a dose of 10, 20, 40, 60 and 80 μg/day, respectively, and two receiving placebo in a randomized and double-blind manner). […] They were resident in the study unit until day 17 and FU evaluation was performed on day 21–25.
Safety and tolerability assessments consisted of adverse events (AEs), clinical laboratory (clinical chemistry, haematology, coagulation, and urinalysis), vital signs (blood pressure, pulse rate, respiratory rate, and temperature), 12-lead ECG (Part B), 24 h continuous cardiac monitoring (telemetry; Part A), body weight, physical examination, injection site reaction, and measurement of antidrug antibodies (ADA) in plasma (Part B).

CC[C@H](C)[C@H](NC(=O)[C@H](CCC(=O)O)NC(=O)[C@H](C)NC(=O)[C@@H](NC(=O)[C@H](Cc1c[nH]cn1)NC(=O)[C@@H](NC(=O)[C@H](CCC(=O)O)NC(=O)[C@H](C)NC(=O)[C@@H](NC(=O)[C@H](CC(C)C)NC(=O)[C@H](CCCCN)NC(=O)[C@H](Cc1c[nH]cn1)NC(=O)[C@H](CC(C)C)NC(=O)[C@H](Cc1ccccc1)NC(=O)[C@H](C)NC(=O)[C@H](CCCNC(=N)N)NC(=O)[C@H](CCCNC(=N)N)NC(=O)[C@H](CCCNC(=N)N)NC(=O)[C@H](C)NC(=O)[C@H](CC(=O)O)NC(=O)[C@H](CCC(N)=O)NC(=O)[C@@H](NC(=O)[C@H](Cc1c[nH]c2ccccc12)NC(=O)[C@H](CCCCN)NC(=O)[C@H](C)NC(=O)[C@H](CCCNC(=N)N)NC(=O)[C@H](CCC(N)=O)NC(=O)[C@H](Cc1c[nH]cn1)NC(=O)[C@H](CCSC)NC(=O)[C@H](CC(C)C)NC(=O)[C@H](CCC(N)=O)NC(=O)[C@@H](NC(=O)[C@H](CCC(=O)O)NC(=O)[C@H](C)NC(=O)[C@@H](NC(=O)[C@H](C)N)C(C)C)[C@@H](C)CC)[C@@H](C)CC)[C@@H](C)CC)[C@@H](C)CC)[C@@H](C)O)C(=O)O [eneboparatide] (H-AVAEIQLMHQRAKWIQDARRRAFLHKLIAEIHTAEI-OH; N-terminus and C-terminus assumed)
Abdominal pain, subjects with TEAE [1]: 1 | Application site irritation, subjects with TEAE [1]: 0 | Catheter site haematoma, subjects with TEAE [1]: 0 | Catheter site pain, subjects with TEAE [1]: 0 | Decreased appetite, subjects with TEAE [1]: 2 | Diarrhoea, subjects with TEAE [1]: 0 | Dizziness, subjects with TEAE [1]: 1 | Dry skin, subjects with TEAE [1]: 0 | Dyspepsia, subjects with TEAE [1]: 2 | Fatigue, subjects with TEAE [1]: 1 | Flatulence, subjects with TEAE [1]: 1 | Headache, subjects with TEAE [1]: 4 | Injection site erythema, subjects with TEAE [1]: 3 | Injection site haematoma, subjects with TEAE [1]: 3 | Injection site pain, subjects with TEAE [1]: 2 | Injection site pruritus, subjects with TEAE [1]: 0 | Injection site tenderness, subjects with TEAE [1]: 2 | Insomnia, subjects with TEAE [1]: 1 | Muscle spasms, subjects with TEAE [1]: 0 | Myalgia, subjects with TEAE [1]: 0 | Nausea, subjects with TEAE [1]: 5 | Somnolence, subjects with TEAE [1]: 3 | Vomiting, subjects with TEAE [1]: 3 | subjects with transient hypercalcaemia (Part B, 80 μg/d, well-tolerated, resolved spontaneously after day 14): six of the eight | Abdominal pain, subjects with TEAE [2]: 0 | Application site irritation, subjects with TEAE [2]: 0 | Catheter site haematoma, subjects with TEAE [2]: 1 | Catheter site pain, subjects with TEAE [2]: 1 | Decreased appetite, subjects with TEAE [2]: 0 | Diarrhoea, subjects with TEAE [2]: 0 | Dizziness, subjects with TEAE [2]: 1 | Dry skin, subjects with TEAE [2]: 0 | Dyspepsia, subjects with TEAE [2]: 0 | Fatigue, subjects with TEAE [2]: 0 | Flatulence, subjects with TEAE [2]: 0 | Headache, subjects with TEAE [2]: 1 | Injection site erythema, subjects with TEAE [2]: 2 | Injection site haematoma, subjects with TEAE [2]: 3 | Injection site pain, subjects with TEAE [2]: 0 | Injection site pruritus, subjects with TEAE [2]: 1 | Injection site tenderness, subjects with TEAE [2]: 1 | Insomnia, subjects with TEAE [2]: 0 | Muscle spasms, subjects with TEAE [2]: 0 | Myalgia, subjects with TEAE [2]: 0 | Nausea, subjects with TEAE [2]: 4 | Somnolence, subjects with TEAE [2]: 2 | Vomiting, subjects with TEAE [2]: 1 | Abdominal pain, subjects with TEAE [3]: 2 (5) n (%) | Application site irritation, subjects with TEAE [3]: 3 (7.5) n (%) | Catheter site haematoma, subjects with TEAE [3]: 5 (12.5) n (%) | Catheter site pain, subjects with TEAE [3]: 6 (15) n (%) | Decreased appetite, subjects with TEAE [3]: 3 (7.5) n (%) | Diarrhoea, subjects with TEAE [3]: 3 (7.5) n (%) | Dizziness, subjects with TEAE [3]: 3 (7.5) n (%) | Dry skin, subjects with TEAE [3]: 2 (5) n (%) | Dyspepsia, subjects with TEAE [3]: 5 (12.5) n (%) | Fatigue, subjects with TEAE [3]: 3 (7.5) n (%) | Flatulence, subjects with TEAE [3]: 4 (10) n (%) | Headache, subjects with TEAE [3]: 10 (25) n (%) | Injection site haematoma, subjects with TEAE [3]: 17 (42.5) n (%) | Injection site pain, subjects with TEAE [3]: 3 (7.5) n (%) | Injection site pruritus, subjects with TEAE [3]: 6 (15) n (%) | Injection site tenderness, subjects with TEAE [3]: 3 (7.5) n (%) | Insomnia, subjects with TEAE [3]: 3 (7.5) n (%) | Muscle spasms, subjects with TEAE [3]: 2 (5) n (%) | Myalgia, subjects with TEAE [3]: 5 (12.5) n (%) | Nausea, subjects with TEAE [3]: 12 (30) n (%) | Somnolence, subjects with TEAE [3]: 9 (22.5) n (%) | Vomiting, subjects with TEAE [3]: 4 (10) n (%) | telemetry (Part A) or ECG (Part B), blood pressure, heart rate, respiratory rate (Parts A and B): No changes of clinical relevance | serious or severe AEs (Parts A and B: single up to 120 μg, multiple up to 80 μg/day for 14 days): No serious or severe AEs were reported | vomiting (mild/moderate AE associated with hypercalcaemia), subjects (highest doses tested): four out of 40
